Publication PMC11602157, “ZNF512B binds RBBP4 via a variant NuRD interaction motif and aggregates chromatin in a NuRD complex-independent manner” (Nucleic Acids Research, 2024)

Target: T1, RBBP4 (Homo sapiens, UniProt Q09028)
T1 construct: Expression of recombinant RBBP4 protein was done as described ([32]); His-tag (inferred from His-Trap purification); made in house
Test: Competitive fluorescence polarization (displacement of FAM-labeled ZNF512B tracer)
Format: binding
Details: ratio of competitive ki, ZNF512B vs FOG-1
Procedure: Expression of recombinant RBBP4 protein was done as described ([32]). RBBP4 was purified by FPLC using the Äkta Start (Cytiva) via a His-Trap column (71502768) and subsequently a HiTRAP Q column (29051325) by standard procedures outlined in the instructions of the manufacturer. To determine the dissociation constant (kD), serial dilutions of RBBP4 protein (10–0 μM, 25 μl) in 50 mM Tris/Cl pH 7.5, 150 mM NaCl and 0.02% Triton™ X-100 were added to 25 μl of the fluorescently tagged tracer peptide for a finale volume of 50 μl with 1 nM tracer. The 384-well plate (GBO 781 900) was measured (Tecan Spark 20M) after 60 min and the kD values were calculated by converting the mP values into their corresponding anisotropy (A) values following the equation:
Hereby, A = anisotropy and P = polarization. These values were plotted versus the respective concentrations of the protein with a non-linear regression according to the following equation: […]
Hereby, A is the experimental anisotropy, Af is the anisotropy for the free ligand, Ab is the anisotropy for the fully bound ligand, LT is the total added concentration of ligand, kD is the equilibrium dissociation constant and RT is the total receptor concentration. […] Inhibition constant (ki) values were calculated using the following equation described previously by Wang et al. and the standard deviation was calculated for each ki value ([35]).

T1 sequence (Q09028 whole entry): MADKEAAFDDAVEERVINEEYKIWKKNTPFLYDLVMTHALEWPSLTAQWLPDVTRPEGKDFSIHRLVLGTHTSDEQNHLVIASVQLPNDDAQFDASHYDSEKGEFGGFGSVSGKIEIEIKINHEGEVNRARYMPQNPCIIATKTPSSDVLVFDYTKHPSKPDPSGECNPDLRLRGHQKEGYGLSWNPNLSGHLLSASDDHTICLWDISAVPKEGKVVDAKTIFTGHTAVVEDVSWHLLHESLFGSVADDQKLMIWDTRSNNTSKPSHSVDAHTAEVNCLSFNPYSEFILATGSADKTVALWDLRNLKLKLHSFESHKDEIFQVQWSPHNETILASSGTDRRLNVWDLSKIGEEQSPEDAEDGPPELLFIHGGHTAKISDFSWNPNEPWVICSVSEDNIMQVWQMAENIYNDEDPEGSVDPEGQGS

higher affinity for RBBP4 than FOG-1: > 60 -fold
Compound: CC(=O)N[C@@H](CCCCN)C(=O)N[C@@H](Cc1c[nH]cn1)C(=O)N[C@@H](CCCNC(=N)N)C(=O)N[C@@H](CCCNC(=N)N)C(=O)N[C@@H](CCCCN)C(=O)N[C@@H](CCC(N)=O)C(=O)N[C@@H](CCCCN)C(=O)N[C@H](C(=O)N1CCC[C@H]1C(=O)N[C@@H](CCCCN)C(=O)N[C@@H](CCCCN)C(=O)N[C@@H](Cc1ccccc1)C(N)=O)[C@@H](C)O [ZNF512B-WT]
